Experimental findings from ChEMBL document CHEMBL1201862, “PubChem BioAssay data set” (2004) are described below.

Some test systems named below: HCC 2998; SW-620; A498; NCI-H460; SK-MEL-5; NCI/ADR-RES; HCT-15; NCI-H226; A549; SNB-75; DU-145; NCI-H23; CCRF-CEM; HCT-116; SR; UACC-257; COLO 205; OVCAR-3; PC-3; Hs-578T.
What all share (assay): NCI-60 cell line screen, 48 h

SMILES strings stand for the structures.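 48-hour exposure; five concentrations; linearly interpolated endpoints. GI50 = concentration required for 50% inhibition of growth.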 Activity calls are given as the source filed them. Rule as the data show it: active = GI50 up to about 1.1 µM and inactive = higher.

Consider `O=C1/C(=C/c2ccc(O)cc2)CCc2ccc([N+](=O)[O-])cc21`, for which the GI50 was > 100 µM (inactive) with HCC 2998; > 100 µM (inactive) in the assay with SW-620; 34.6 µM (inactive) in the assay on A498; 45.9 µM (inactive) in the assay on NCI-H460; > 81.8 µM (inactive) in the assay with SK-MEL-5; 73.5 µM (inactive) in the assay with NCI/ADR-RES. In addition, the GI50 with HCT-15 was over 100 µM; with NCI-H226, 28.7 µM (inactive); in the assay with A549 it was 45 µM (inactive); in the assay with SNB-75, 53.2 µM (inactive); in the assay on DU-145, 55.3 µM (inactive); in the assay with NCI-H23 it was 36.1 µM (inactive). Further, the GI50 with CCRF-CEM was 0.419 µM (active); in the assay with HCT-116, 75.5 µM (inactive); in the assay with SR it was 1.63 µM (inactive); with UACC-257, 97.7 µM (inactive); in the assay with COLO 205, > 100 µM (inactive); with OVCAR-3, > 78.2 µM (inactive). Also, the GI50 is > 100 µM (inactive) in the assay on PC-3 and 35.9 µM (inactive) with Hs-578T.

With `Cc1ccccc1NC(=O)CC(=O)NNC(Sc1ccccc1)c1cc(/N=N/c2ccc(Br)cc2)ccc1O` (stereo not given), the GI50 in the assay on HCC 2998 is 7.36 µM (inactive); with SW-620, 0.723 µM (active); in the assay with A498, 2.4 µM (inactive); in the assay with NCI-H460 it was 0.658 µM (active); in the assay with SK-MEL-5 it was 1.24 µM (inactive); with NCI/ADR-RES, 1.71 µM (inactive). The GI50 is 0.836 µM with HCT-15; 2.04 µM (inactive) with NCI-H226; 3.42 µM (inactive) in the assay with A549; 3.79 µM (inactive) in the assay with SNB-75; 2.21 µM (inactive) in the assay on DU-145; 3.08 µM (inactive) in the assay on NCI-H23. Besides, the GI50 is 0.43 µM (active) with CCRF-CEM; 0.308 µM (active) in the assay on HCT-116; 0.37 µM (active) in the assay with SR; 3.65 µM (inactive) with UACC-257; 3.1 µM (inactive) in the assay with COLO 205; 0.368 µM (active) with OVCAR-3. Moreover, the GI50 in the assay with PC-3 was 0.877 µM (active); with Hs-578T it was > 10 µM (inactive).

As to `CCOC(=O)C(NC(=O)CC)(Nc1ccc(S(=O)(=O)Nc2ccc(OC)nn2)cc1)C(F)(F)F` (stereo not given), the GI50 is 27.4 µM (inactive) in the assay with HCC 2998; > 100 µM (inactive) in the assay with SW-620; > 100 µM (inactive) in the assay on A498; > 100 µM (inactive) with NCI-H460; > 100 µM (inactive) in the assay with SK-MEL-5; > 100 µM (inactive) in the assay with NCI/ADR-RES. Moreover, the GI50 was over 100 µM in the assay with HCT-15; > 100 µM (inactive) with NCI-H226; > 100 µM (inactive) in the assay on A549; > 100 µM (inactive) with SNB-75; > 100 µM (inactive) in the assay on DU-145; > 100 µM (inactive) in the assay with NCI-H23. The GI50 in the assay with CCRF-CEM, with HCT-116, in the assay on SR, with UACC-257, in the assay with COLO 205 and with OVCAR-3 was > 100 µM (inactive) throughout. The GI50 in the assay with PC-3 and in the assay with Hs-578T was > 100 µM (inactive) throughout.

In the case of `CCCCCCOc1ccc(NC2=C(Cl)C(=O)c3c(O)ccc(O)c3C2=O)cc1`, the GI50 with HCC 2998 was 1.8 µM (inactive); with SW-620, 2.2 µM (inactive); in the assay on A498, 4.57 µM (inactive); in the assay with NCI-H460, 1.01 µM (active); with SK-MEL-5 it was 1.31 µM (inactive); in the assay on NCI/ADR-RES, 2.55 µM (inactive). Besides, the GI50 with HCT-15 is 1.91 µM; in the assay on NCI-H226 it was 3.88 µM (inactive); with A549, 3.27 µM (inactive); in the assay with SNB-75, 4.06 µM (inactive); with DU-145, 5.9 µM (inactive); in the assay on NCI-H23, 2.4 µM (inactive). Moreover, the GI50 was 2.49 µM (inactive) with CCRF-CEM; 1.6 µM (inactive) with HCT-116; 1.94 µM (inactive) in the assay on SR; 3.85 µM (inactive) in the assay on UACC-257; 1.78 µM (inactive) in the assay with COLO 205; 2.02 µM (inactive) in the assay with OVCAR-3. Further, the GI50 in the assay with PC-3 is 3.09 µM (inactive); with Hs-578T, 3.35 µM (inactive).

With `O=C1c2c(Br)sc(Br)c2[C@@H](O)[C@H]1O`, the GI50 is 20.1 µM (inactive) in the assay on HCC 2998; 3.28 µM (inactive) with SW-620; 68.1 µM (inactive) in the assay on A498; 17.2 µM (inactive) in the assay on NCI-H460; 18.4 µM (inactive) with SK-MEL-5; 22.4 µM (inactive) with NCI/ADR-RES. In addition, the GI50 with HCT-15 is 11.4 µM; in the assay on NCI-H226, 17.6 µM (inactive); in the assay on A549, 20.9 µM (inactive); in the assay on SNB-75, 15.4 µM (inactive); in the assay on DU-145, 16.4 µM (inactive); with NCI-H23, 7.21 µM (inactive). In addition, the GI50 in the assay with CCRF-CEM was 2.32 µM (inactive); in the assay with HCT-116, 16.8 µM (inactive); in the assay with SR it was 1.96 µM (inactive); with UACC-257, 15.1 µM (inactive); in the assay on COLO 205, 14.3 µM (inactive); with OVCAR-3, 2.24 µM (inactive). Besides, the GI50 is 17.5 µM (inactive) with PC-3 and 23.1 µM (inactive) in the assay with Hs-578T.

As to `CCCCc1c2c(nc3c1CCCC3O)CCCC2` (stereo not given), the GI50 in the assay with HCC 2998, with SW-620, in the assay on A498, in the assay on NCI-H460, in the assay on SK-MEL-5 and with NCI/ADR-RES was > 100 µM (inactive) in each case. Besides, the GI50 with HCT-15 was over 100 µM; in the assay with NCI-H226, > 100 µM (inactive); in the assay with A549, > 100 µM (inactive); with SNB-75 it was > 100 µM (inactive); in the assay with DU-145, > 100 µM (inactive); with NCI-H23 it was > 100 µM (inactive). The GI50 in the assay with CCRF-CEM was 72.6 µM (inactive); in the assay on HCT-116 it was > 100 µM (inactive); with SR, 5.11 µM (inactive); in the assay on UACC-257, > 100 µM (inactive); in the assay on COLO 205, > 100 µM (inactive); in the assay with OVCAR-3 it was 71.8 µM (inactive). The GI50 with PC-3 and in the assay on Hs-578T was > 100 µM (inactive) throughout.

As for `CCCCCC(/C=N/NC(N)=S)C(O)(C(F)(F)F)C(F)(F)F` (stereo not given), the GI50 with HCC 2998, in the assay on SW-620, in the assay with A498, in the assay with NCI-H460, with SK-MEL-5 and in the assay on NCI/ADR-RES was > 10 µM (inactive) each time. Besides, the GI50 in the assay on HCT-15 was over 10 µM; in the assay on NCI-H226, > 10 µM (inactive); in the assay on A549 it was > 10 µM (inactive); with SNB-75, > 10 µM (inactive); in the assay on DU-145 it was > 10 µM (inactive); in the assay on NCI-H23, > 10 µM (inactive). Besides, the GI50 in the assay with CCRF-CEM, with HCT-116, with SR, in the assay on UACC-257, in the assay with COLO 205 and in the assay with OVCAR-3 was > 10 µM (inactive) each time. For the same compound, the GI50 with PC-3 and with Hs-578T was > 10 µM (inactive) in each case.

Regarding `Cc1c(C)c(CC(=O)N2CC2)c(C)c(C)c1CC(=O)N1CC1`, the GI50 in the assay on HCC 2998 is 11.4 µM (inactive); in the assay on SW-620 it was 14.5 µM (inactive); in the assay on A498 it was 16 µM (inactive); in the assay on NCI-H460, 0.337 µM (active); with SK-MEL-5, > 10 µM (inactive); in the assay with NCI/ADR-RES, 11 µM (inactive). Moreover, the GI50 with HCT-15 was 16.8 µM; in the assay with NCI-H226 it was 15.5 µM (inactive); with A549 it was 7.28 µM (inactive); with SNB-75 it was 6.73 µM (inactive); in the assay on DU-145 it was 2.1 µM (inactive); in the assay on NCI-H23 it was 2.77 µM (inactive). Moreover, the GI50 with CCRF-CEM was 1.15 µM (inactive); with HCT-116, 9.02 µM (inactive); with SR, 0.33 µM (active); in the assay with UACC-257, 17.6 µM (inactive); with COLO 205, 14.7 µM (inactive); in the assay with OVCAR-3 it was 19.5 µM (inactive). In addition, the values for the GI50 in the assay with PC-3 and in the assay on Hs-578T were 16 µM (inactive) and 30.3 µM (inactive), respectively.

Consider `Cc1ccc(CC2(C(=O)O)Cc3ccc(C)cc3C2)cc1` (stereo not given), for which the GI50 in the assay with HCC 2998, with SW-620, in the assay on A498, in the assay on NCI-H460, in the assay on SK-MEL-5 and with NCI/ADR-RES was > 100 µM (inactive) each time. The GI50 is 54 µM in the assay with HCT-15; > 100 µM (inactive) in the assay with NCI-H226; 72.9 µM (inactive) with A549; > 100 µM (inactive) with SNB-75; > 100 µM (inactive) in the assay with DU-145; 75.5 µM (inactive) with NCI-H23. Besides, the GI50 in the assay on CCRF-CEM was 49.2 µM (inactive); with HCT-116, > 100 µM (inactive); with SR, > 100 µM (inactive); in the assay with UACC-257 it was > 100 µM (inactive); with COLO 205, 84.3 µM (inactive); in the assay on OVCAR-3 it was > 100 µM (inactive). The GI50 was 51.5 µM (inactive) in the assay with PC-3 and > 100 µM (inactive) in the assay on Hs-578T.

For `COc1cc(/C=C(\C#N)C(N)=C(C#N)C#N)cc(O)c1O`, the GI50 in the assay with HCC 2998 was > 100 µM (inactive); in the assay with SW-620, > 76.4 µM (inactive); with A498 it was > 100 µM (inactive); in the assay with NCI-H460, > 89.1 µM (inactive); in the assay on SK-MEL-5, > 100 µM (inactive); with NCI/ADR-RES, > 100 µM (inactive). Moreover, the GI50 in the assay with HCT-15 was over 68.5 µM; in the assay on NCI-H226 it was > 63.5 µM (inactive); with A549, > 100 µM (inactive); with SNB-75 it was > 88.5 µM (inactive); in the assay with DU-145, > 100 µM (inactive); in the assay with NCI-H23, > 100 µM (inactive). Moreover, the GI50 is 22.7 µM (inactive) in the assay on CCRF-CEM; > 70.5 µM (inactive) in the assay with HCT-116; 35.1 µM (inactive) in the assay with SR; > 100 µM (inactive) with UACC-257; > 100 µM (inactive) with COLO 205; > 56.4 µM (inactive) with OVCAR-3. Further, the GI50 in the assay with PC-3 is > 100 µM (inactive); in the assay on Hs-578T, 42.9 µM (inactive).
